Measured values as given in US7326721B2 (Hypnion, Inc., priority 2003, dated 2008).
Values joined by “and” are separate entries in the source; they are usually repeats but may differ in a detail not shown here. Identical values can stand only once. Like-named read-outs stand apart in the source and are kept apart here.

What was measured:
Wistar rats = test: Acetic acid-induced abdominal spasm test in the rat; format: in vivo; conditions: oral 100 mg/kg
Description: (§1) The objective of this example was to determine the analgesic activity of HY-2901 (Also referred to herein as Compound 49a) following oral administration. Analgesic activity was assessed abdominal spasm test in the rat and mouse. Analgesic activity is also assessed using the tail clip test in the mouse, tail flick test in the rat, Randall-Selitto test in the rat and comparisons are made with a vehicle control group. Reference compounds ASA (acetylsalicylic acid) and morphine are also included for comparison.
(§2) The tail clip and tail flick test provide useful information about the central analgesic activity of the test article. The Randall-Selitto test provides information on the compound's ability to modify a hyperalgesic state and the abdominal spasm test provides information on the peripheral analgesic activity of the test article. The test article is administered by oral gavage, this being the intended clinical route of administration. The dose levels employed are expected to encompass the efficacy dose and provide an adequate safety margin.
(§3) All formulations were prepared on each day of dosing. The test article (HY-2901) was formulated in 0.25% (w/v) MC at the highest concentration required. Lower doses were obtained by serial dilution of the highest concentration using 0.25% (w/v) MC. The reference compound, acetylsalicylic acid, was formulated in 0.25% (w/v) MC at the required concentrations. Brewer's yeast was formulated in water for injection at the required concentration. Acetic acid was diluted with water for injection to provide the required concentration for administration.
(§4) An adequate number of male Crl:CD-I(ICR)BR mice and Wistar rats were obtained from Charles River (UK) Ltd., Margate, Kent. The mice were approximately 4 weeks of age and weigh between 18 and 22 g on arrival. The rats were approximately 5 weeks of age and weigh between 150 and 170 g on arrival. The age and weight of the animals at the start of the study was documented in the raw data and final report,
Each animal received a single administration of vehicle, test article or reference compound by oral gavage, using a constant dose volume […]. Individual dose volumes were based on individual body weights obtained on the day of dosing.
Forty-five minutes following oral administration each animal received a 1 mL intraperitoneal injection of 1% acetic acid. Animals were immediately placed into individual observation chambers and the number of abdominal spasms elicited over the subsequent 25-minute period was recorded.

Crl:CD-I(ICR)BR mice = test: Acetic acid-induced abdominal spasm test in the mouse; format: in vivo
Description: as §1, §2, §3, §4
Each animal received a single administration of vehicle, test article or reference compound by oral gavage, using a constant dose volume 10 mL/kg. Individual dose volumes were based on individual body weights obtained on the day of dosing.
Forty-five minutes following oral administration each animal received a 0.25 mL intraperitoneal injection of 0.5% acetic acid. Animals were immediately placed into individual observation chambers and the number of abdominal spasms elicited over the subsequent 25-minute period was recorded.

5HT2a (rat) = 5HT2a (rat) (Rattus norvegicus, UniProt P14842); test: 5HT2a (rat) binding (Table 28)
Description: (§5) The comparative data is shown in Table 28, unless otherwise noted, binding was measured with the bovine receptors, H1(hR) is the human H1 receptor, 5HT2a (h) is the human 5HT2a receptor. Binding numbers are presented in nM values.

human 5HT2a receptor = human 5HT2a receptor (Homo sapiens, UniProt P28223); test: 5HT2a (h) binding (Table 28)
M1 muscarinic receptor [1] = biological target: T1, M1 muscarinic receptor (Homo sapiens, UniProt P11229); test: Muscarinic M1 binding assay ([3H]-scopolamine, N-methyl chloride)
T1 sequence (P11229 1-460): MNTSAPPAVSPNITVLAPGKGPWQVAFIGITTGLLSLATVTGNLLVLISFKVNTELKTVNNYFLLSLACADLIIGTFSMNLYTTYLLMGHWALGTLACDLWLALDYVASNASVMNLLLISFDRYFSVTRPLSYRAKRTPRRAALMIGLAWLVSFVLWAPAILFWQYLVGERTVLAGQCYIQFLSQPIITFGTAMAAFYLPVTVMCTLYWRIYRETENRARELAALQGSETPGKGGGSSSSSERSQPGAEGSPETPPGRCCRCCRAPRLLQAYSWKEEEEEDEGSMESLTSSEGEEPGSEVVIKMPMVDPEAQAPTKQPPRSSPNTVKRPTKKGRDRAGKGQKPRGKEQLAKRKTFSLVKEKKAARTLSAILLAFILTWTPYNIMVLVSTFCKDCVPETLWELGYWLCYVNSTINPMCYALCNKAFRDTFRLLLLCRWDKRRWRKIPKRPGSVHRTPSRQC

[2] = biological target: Adrenergic, Alpha 1, Non-selective; test: Table 12 panel: Adrenergic, Alpha 1; format: binding; conditions: read-out: α1 binding
Dopamine, D1 = Dopamine, D1 (UniProt P21728); test: Dopamine, D1 (human recombinant) binding assay
[3] = biological target: Adrenergic, Alpha 2, Non-selective; test: Table 12 panel: Adrenergic, Alpha 2; format: binding; conditions: read-out: α2 binding
M2 muscarinic receptor [4] = biological target: T2, M2 muscarinic receptor (Homo sapiens, UniProt P08172); test: Muscarinic M2 binding assay
T2 sequence (P08172 1-466): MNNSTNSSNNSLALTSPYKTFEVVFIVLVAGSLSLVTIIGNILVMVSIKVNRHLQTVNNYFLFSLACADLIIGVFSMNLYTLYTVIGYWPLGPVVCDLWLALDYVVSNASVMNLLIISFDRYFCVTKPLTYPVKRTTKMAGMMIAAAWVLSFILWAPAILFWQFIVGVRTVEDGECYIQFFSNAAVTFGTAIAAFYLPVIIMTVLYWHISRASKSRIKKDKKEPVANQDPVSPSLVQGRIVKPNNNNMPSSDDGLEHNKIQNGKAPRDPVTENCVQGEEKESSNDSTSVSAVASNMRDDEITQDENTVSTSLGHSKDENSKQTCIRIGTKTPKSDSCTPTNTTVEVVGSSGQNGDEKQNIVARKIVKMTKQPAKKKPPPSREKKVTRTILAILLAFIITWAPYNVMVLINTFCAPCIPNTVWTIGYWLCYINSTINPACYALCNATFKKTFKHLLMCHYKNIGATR

human H1 receptor = human H1 receptor (Homo sapiens, UniProt P35367); test: H1(hR) binding (Table 28)
Description: as §5

H1 histamine receptor = biological target: T3, H1 histamine receptor (Bos taurus, UniProt P30546); test: Histamine H1 competitive binding assay ([3H]pyrilamine); design: species or system bovine
T3 construct: the receptors were obtained from bovine cerebellar membrane tissue; from tissue; host or cells: bovine cerebellar membranes

hERG = hERG (Homo sapiens, UniProt Q12809)
M3 muscarinic receptor [5] = biological target: T4, M3 muscarinic receptor (Homo sapiens, UniProt P20309); test: Muscarinic M3 binding assay
[6] = biological target: Dopamine, D1 (human recombinant) (UniProt P14416); test: Dopamine D2 binding assay (printed as D1 in b555)
Description: In vitro binding assays are used to determine H1 binding (i.e., primary target binding) and M1, M2 and M3 binding (i.e., off target binding). […] Similar assays are performed with H1 and dopamine receptors (D1 and D2), and with H1 and adrenergic receptors (α1 and α2).
Dopamine, D1 (human recombinant) binding assay was performed according to published procedures. See, e.g., Jarvie, et al. J. Recept Res., 13(1–4): 573–90 (1993); and Gundlach, et al. Life Sciences, 35(19): 1981–8 (1984) with modifications

adult male Wistar rats = test: SCORE-2000 sleep-wakefulness, locomotor activity and body temperature monitoring; format: in vivo, rat
male Wistar rats = format: in vivo
Description: The Irwin screen can provide useful information on potential side effects of compounds on general physiological and behavioural functions. The screen was conducted by administering the test compounds orally in 0.25% aqueous methylcellulose using male Wistar rats, a frequently used species in such studies and for which background data are readily available.
The Irwin screen tests for numerous parameters in animals that have been administered the test compound. For example, the screen can include: in-cage effects, e.g., dispersion, respiratory rate, locomotor activity, restlessness, fighting, alertness, apathy, and exophthalmus; in-arena effects, e.g., transfer arousal, spatial locomotion, ptosis, startle, tail elevation, piloerection, touch escape, positional passivity, catalepsy, tighting reflex, visual placing, grip strength, pinna, corneal, pain response, and wire manoeuvre; parameters observed in handling, e.g., cyanosis, cutaneous blood flow, hypothermia, body tone, pupil size, light-pupil response, lacrimation, grooming, red staining, salivation, and provoked biting; general scores e.g., fearfulness, irritability, abnormal gait, abnormal body carriage, tremors, twitches, convulsions, bizarre behaviour, writhing, vocalisation, diarrhoea, number of defaecations, number of urinations, moribund, lethality, and abnormalities detected. Further details can be found in Irwin, S; Comprehensive observational assessment: I a. A systematic, quantitative procedure for assessing the behavioural and physiological state of the mouse.
Irwin screening of the disclosed sleep-inducing agents was performed by Covance (Princeton, N.J.) according to Irwin, above; Covance Standard Operating Procedure (current revision of SOP PHARM 8.10); relevant regulatory authority guidelines ICH (International Committee for Harmonization) Guideline (Topic S7A; CPMP/ICH/539/00) on Safety Pharmacology Studies for human pharmaceuticals (November 2000); and all procedures carried out on live animals were subject to the provisions of United Kingdom Law, in particular the Animals (Scientific Procedures) Act, 1986. which obliges all UK laboratories to maintain a local ethical review process to ensure that all animal use in the establishment is carefully considered and justified; that proper account is taken of all possibilities for reduction, refinement or replacement and that high standards of accommodation and care are achieved.
All test compound formulations were prepared on the day of dosing by Covance Harrogate Dispensary. The test compounds were formulated in 0.25% aqueous methylcellulose at the highest concentration required. Lower doses were obtained by serial dilution of the highest concentration using 0.25% aqueous methylcellulose. Dose levels are expressed in terms of the amount of test compound administered without regard to purity or active content. All formulations were stored at room temperature (nominally 10 to 30° C.) in sealed containers and protected from light.
An adequate number of male Wistar (Crl:WI(Glx/BRL/Han) BR:WH) rats were obtained from Charles River Ltd. (Margate, Kent, United Kingdom). The rats were approximately 5 weeks of age and weighed between 150 and 170 g on arrival. The animals were housed in groups of no more than six in polypropylene cages (33×15×13 cm) or (45×28×20 cm) with solid floors and Grade 10 woodflakes (Datesand Ltd., Cheshire, United Kingdom) as bedding. The cages were cleaned and dried before use. Aspen chew blocks were placed within the cages as a form of environmental enrichment. Routinely, holding rooms were maintained within acceptable limits for temperature and relative humidity (nominally 19 to 25° C. and 40% to 70%, respectively). These rooms were illuminated by fluorescent light for 12 hours out of each 24 hour cycle and designed to receive at least 15 fresh air changes per hour. […]

M2 muscarinic receptor [7] = biological target: T2, M2 muscarinic receptor; test: Muscarinic M2 binding assay; design: purchased PerkinElmer, Inc., Wellesley, Mass; host or cells: CHO cells; conditions: read-out: Ki M2
M3 muscarinic receptor [8] = biological target: T4, M3 muscarinic receptor; test: Muscarinic M3 binding assay; design: purchased PerkinElmer, Inc., Wellesley, Mass; host or cells: CHO cells; conditions: read-out: Ki M3
M1 muscarinic receptor [9] = biological target: T1, M1 muscarinic receptor; test: Muscarinic M1 binding assay ([3H]-scopolamine, N-methyl chloride); design: purchased PerkinElmer, Inc., Wellesley, Mass; host or cells: CHO cells; conditions: read-out: Ki M1
[10] = bovine receptor, read-out: H1 binding

hERG, sequence (Q12809 whole entry): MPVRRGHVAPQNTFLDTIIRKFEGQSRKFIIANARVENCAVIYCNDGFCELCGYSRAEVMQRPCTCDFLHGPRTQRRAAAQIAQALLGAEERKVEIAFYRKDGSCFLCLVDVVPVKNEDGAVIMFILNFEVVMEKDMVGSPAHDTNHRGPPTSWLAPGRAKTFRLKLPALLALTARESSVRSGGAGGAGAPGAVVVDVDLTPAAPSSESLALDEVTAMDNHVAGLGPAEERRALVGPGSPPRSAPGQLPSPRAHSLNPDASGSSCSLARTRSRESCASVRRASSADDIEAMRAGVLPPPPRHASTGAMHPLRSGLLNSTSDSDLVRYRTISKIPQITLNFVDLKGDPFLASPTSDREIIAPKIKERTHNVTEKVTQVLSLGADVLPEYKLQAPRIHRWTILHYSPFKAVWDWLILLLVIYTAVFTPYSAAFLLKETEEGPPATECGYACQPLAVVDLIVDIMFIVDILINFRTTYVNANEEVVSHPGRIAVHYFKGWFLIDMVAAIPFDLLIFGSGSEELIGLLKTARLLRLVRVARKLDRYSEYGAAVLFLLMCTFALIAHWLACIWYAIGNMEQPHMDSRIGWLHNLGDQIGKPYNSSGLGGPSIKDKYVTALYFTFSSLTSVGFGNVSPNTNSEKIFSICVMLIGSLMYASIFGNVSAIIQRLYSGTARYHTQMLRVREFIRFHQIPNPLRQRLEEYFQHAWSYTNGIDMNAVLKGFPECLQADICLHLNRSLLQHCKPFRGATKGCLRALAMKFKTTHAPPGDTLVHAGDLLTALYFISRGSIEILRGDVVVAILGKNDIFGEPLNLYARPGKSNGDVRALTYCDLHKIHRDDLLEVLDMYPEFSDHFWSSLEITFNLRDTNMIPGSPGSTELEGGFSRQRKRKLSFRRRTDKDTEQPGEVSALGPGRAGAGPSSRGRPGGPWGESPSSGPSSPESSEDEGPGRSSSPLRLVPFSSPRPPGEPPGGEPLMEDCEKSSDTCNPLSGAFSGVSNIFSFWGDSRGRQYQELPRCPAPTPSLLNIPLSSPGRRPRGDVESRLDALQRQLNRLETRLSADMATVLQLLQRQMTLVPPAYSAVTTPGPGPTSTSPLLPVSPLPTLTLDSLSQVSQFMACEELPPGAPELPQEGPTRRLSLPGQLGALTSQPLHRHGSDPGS
T4 sequence (P20309 whole entry): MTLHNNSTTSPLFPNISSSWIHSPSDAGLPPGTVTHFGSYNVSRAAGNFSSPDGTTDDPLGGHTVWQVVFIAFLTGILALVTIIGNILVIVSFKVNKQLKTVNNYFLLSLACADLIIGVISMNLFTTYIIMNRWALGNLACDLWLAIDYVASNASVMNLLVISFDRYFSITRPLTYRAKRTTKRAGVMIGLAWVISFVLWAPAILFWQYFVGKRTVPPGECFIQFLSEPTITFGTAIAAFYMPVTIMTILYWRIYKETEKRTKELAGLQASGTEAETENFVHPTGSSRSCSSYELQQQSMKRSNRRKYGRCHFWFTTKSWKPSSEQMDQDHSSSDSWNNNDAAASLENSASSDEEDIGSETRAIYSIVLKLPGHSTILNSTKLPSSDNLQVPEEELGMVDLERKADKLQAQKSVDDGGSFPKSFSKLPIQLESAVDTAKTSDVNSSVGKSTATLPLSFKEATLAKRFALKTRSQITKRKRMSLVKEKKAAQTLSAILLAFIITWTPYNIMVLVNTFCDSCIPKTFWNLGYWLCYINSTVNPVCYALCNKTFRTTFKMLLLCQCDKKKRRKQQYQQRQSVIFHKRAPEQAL
T3 sequence (P30546 whole entry): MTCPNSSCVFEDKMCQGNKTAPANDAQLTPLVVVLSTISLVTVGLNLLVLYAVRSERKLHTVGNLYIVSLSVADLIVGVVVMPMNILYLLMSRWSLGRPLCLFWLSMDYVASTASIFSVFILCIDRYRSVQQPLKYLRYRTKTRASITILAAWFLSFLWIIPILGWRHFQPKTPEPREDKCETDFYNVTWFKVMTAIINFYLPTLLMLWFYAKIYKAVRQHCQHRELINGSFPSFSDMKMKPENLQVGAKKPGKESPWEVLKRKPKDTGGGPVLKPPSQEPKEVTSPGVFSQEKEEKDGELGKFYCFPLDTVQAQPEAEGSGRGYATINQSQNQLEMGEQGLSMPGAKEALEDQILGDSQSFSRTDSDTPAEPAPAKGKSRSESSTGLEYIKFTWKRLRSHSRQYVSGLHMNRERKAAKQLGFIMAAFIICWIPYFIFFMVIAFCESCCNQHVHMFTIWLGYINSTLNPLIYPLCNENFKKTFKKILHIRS
human H1 receptor, sequence (P35367 whole entry): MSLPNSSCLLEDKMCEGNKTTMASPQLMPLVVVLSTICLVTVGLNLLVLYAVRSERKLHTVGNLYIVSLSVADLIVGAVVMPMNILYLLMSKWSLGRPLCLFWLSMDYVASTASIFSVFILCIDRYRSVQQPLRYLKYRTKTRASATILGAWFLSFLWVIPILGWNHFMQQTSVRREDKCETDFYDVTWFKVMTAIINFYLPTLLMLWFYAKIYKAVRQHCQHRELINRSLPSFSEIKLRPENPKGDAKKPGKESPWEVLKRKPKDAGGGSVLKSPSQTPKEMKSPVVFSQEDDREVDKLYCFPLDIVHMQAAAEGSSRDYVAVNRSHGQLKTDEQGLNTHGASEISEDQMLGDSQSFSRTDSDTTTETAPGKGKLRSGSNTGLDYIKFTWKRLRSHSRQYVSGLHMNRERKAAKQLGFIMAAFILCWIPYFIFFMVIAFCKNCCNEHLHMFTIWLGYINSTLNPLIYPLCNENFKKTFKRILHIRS
human 5HT2a receptor, sequence (P28223 whole entry): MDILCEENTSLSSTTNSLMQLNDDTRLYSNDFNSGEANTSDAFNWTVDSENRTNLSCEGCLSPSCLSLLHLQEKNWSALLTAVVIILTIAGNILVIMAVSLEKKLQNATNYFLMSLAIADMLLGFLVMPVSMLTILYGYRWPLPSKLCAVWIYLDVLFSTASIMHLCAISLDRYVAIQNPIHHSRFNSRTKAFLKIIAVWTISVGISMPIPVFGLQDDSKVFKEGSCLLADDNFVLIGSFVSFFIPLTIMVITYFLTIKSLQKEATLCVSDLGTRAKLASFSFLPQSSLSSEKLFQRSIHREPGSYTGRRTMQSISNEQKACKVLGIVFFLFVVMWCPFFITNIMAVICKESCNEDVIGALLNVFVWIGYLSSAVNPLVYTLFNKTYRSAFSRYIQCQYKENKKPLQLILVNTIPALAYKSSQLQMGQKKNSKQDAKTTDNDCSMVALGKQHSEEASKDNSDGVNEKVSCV
5HT2a (rat), sequence (P14842 whole entry): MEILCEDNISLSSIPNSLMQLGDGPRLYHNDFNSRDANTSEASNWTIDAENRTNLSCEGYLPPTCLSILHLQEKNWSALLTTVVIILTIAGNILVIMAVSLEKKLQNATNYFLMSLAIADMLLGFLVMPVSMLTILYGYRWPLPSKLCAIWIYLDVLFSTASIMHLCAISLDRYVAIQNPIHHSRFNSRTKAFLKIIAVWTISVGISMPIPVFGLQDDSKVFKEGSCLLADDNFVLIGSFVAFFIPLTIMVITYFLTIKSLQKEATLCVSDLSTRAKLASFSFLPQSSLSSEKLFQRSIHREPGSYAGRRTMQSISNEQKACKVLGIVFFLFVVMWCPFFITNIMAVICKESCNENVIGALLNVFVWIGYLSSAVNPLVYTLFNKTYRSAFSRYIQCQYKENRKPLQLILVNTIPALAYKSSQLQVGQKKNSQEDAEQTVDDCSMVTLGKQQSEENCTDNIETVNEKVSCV

SMILES	Ki (5HT2a (rat))	Ki (human 5HT2a receptor)	Ki (M1 muscarinic receptor [1])	Ki [2]	Ki (Dopamine, D1)	Ki [3]	Ki (M2 muscarinic receptor [4])	Ki (human H1 receptor)	Ki (H1 histamine receptor; [10])	LUSB (adult male Wistar rats; dose 10 mg/kg oral at CT-18)	NREM (adult male Wistar rats; dose 10 mg/kg oral at CT-18)	LUSB (adult male Wistar rats; dose 30 mg/kg oral at CT-18)	NREM (adult male Wistar rats; dose 30 mg/kg oral at CT-18)	Ki (M2 muscarinic receptor [7])	Ki (H1 histamine receptor; read-out: Ki H1)	Ki (M3 muscarinic receptor [8])	Ki (M1 muscarinic receptor [9])	further results
CC(=O)Oc1ccccc1C(=O)O [ASA, acetylsalicylic acid, reference compound]	–	–	–	–	–	–	–	–	–	–	–	–	–	–	–	–	–	Group mean (=sd) number pf abdominal spasms recorded in a 25-minute period (Wistar rats): 1 ± 2.3; Number of abdominal spasms recorded in a 25-minute period, individual animal data (Wistar rats; 100 mg/kg): 0 (3×) and 1 (2×) and 6; Group mean (±sd) number of abdominal spasms recorded in a 25 minute period (Crl:CD-I(ICR)BR mice; oral 100 mg/kg): 29 ± 29.9; Number of abdominal spasms recorded in a 25-minute period (Crl:CD-I(ICR)BR mice; oral, 100 mg/kg, individual animal data (animals 25-30)): 17 and 8 and 45 and 82 and 1 and 23
COc1ccc2c(c1)COc1ccc(F)cc1C2=C1CCN(CC2(C(=O)O)CC2)CC1 [Compound 10519]	56 nM	541 nM	> 10000 nM	> 10000 nM	> 10000 nM	> 10000 nM	> 10000 nM	34 nM	19.8 nM	–	–	–	–	–	–	–	–	HERG (hERG): 6.10%; Ki (M3 muscarinic receptor [5]): > 10000 nM
COc1ccc2c(c1)COc1ccc(F)cc1C2=C1CCN(CCC(=O)O)CC1 [Compound 10518]	197 nM	422 nM	> 10000 nM	2850 nM	> 10000 nM	> 10000 nM	> 10000 nM	35 nM	52.3 nM	–	–	–	–	–	–	–	–	Ki [6]: > 10000 nM; LUSB 3 mg/kg (adult male Wistar rats; 3 mg/kg): 6.7 ± 2.3; LUSB 10 mg/kg (adult male Wistar rats; 10 mg/kg): 7.9 ± 1.7; NREM cumul. 10 mpk (adult male Wistar rats; 10 mpk): 46 ± 7; HERG (hERG; human, 10 µM, pH 7.4): 3.90%
O=C(O)C1(CCN2CCC(=C3c4ccc(Cl)cc4COc4ccccc43)CC2)CC1 [Compound 59b]	–	–	–	–	–	–	–	–	–	12.8 min	42.4 min	6.1 min	23.1 min	> 10000 nM	66.7 nM	> 10000 nM	> 10000 nM	Irwin at mg/kg dose (male Wistar rats; rat, in vivo): clean; hERG at micromolar (% blocking of the hERG channel) (hERG; human, 10 µM, pH 7.4): 28% @ 10
CC(C)(CN1CCC(=C2c3ccc(Cl)cc3COc3ccccc32)CC1)C(=O)O [Compound 51a]	–	–	–	–	–	–	–	–	–	18.2 min	60.3 min	6.3 min	49.3 min	> 10000 nM	26.4 nM	> 10000 nM	> 10000 nM	LUSB (adult male Wistar rats; dose 3 mg/kg oral at CT-18): 8.8 min; NREM (adult male Wistar rats; dose 3 mg/kg oral at CT-18): 32.1 min; Irwin at mg/kg dose (male Wistar rats; 10 mg/kg oral): clean; Irwin at mg/kg dose (male Wistar rats; 30 mg/kg oral): some side effects; Irwin at mg/kg dose (male Wistar rats; 100 mg/kg oral): lethality; hERG at micromolar (% blocking of the hERG channel) (hERG; human, pH 7.4): 40.6%
